{"source": "patent US7589080B2", "about": "“β-cyclodextrin compositions, and use to prevent transmission of sexually transmitted diseases” (priority 2000, dated 2009)", "key": {"[1]": {"test_system": "total cellular cholesterol", "assay": "Cellular cholesterol measurement (cholesterol oxidase fluorimetric assay)", "assay_type": "cell-based", "conditions": "10 to 20 mM for 1 hr at 37° C, then washing", "experimental": "Cellular cholesterol was measured with a sensitive cholesterol oxidase-based fluorimetric assay (Amplex Red Cholesterol Kit) from Molecular Probes (Eugene Oreg.). Cholesterol content of cells was normalized to total cellular protein.\nThe role of lipid rafts in the HIV-1 fusion process was examined by treating CD4+HIV-susceptible target cells with 2-OH-βCD to deplete membrane cholesterol and disperse lipid rafts."}, "[2]": {"test_system": "CD4", "assay": "Flow cytometry of CD4 surface expression", "assay_type": "cell-based", "experimental": "(§1) Flow cytometry was performed as previously described (Orentas and Hildreth, supra, 1993). Briefly, 2×10^5 2-OH-βCD treated or untreated cells in 100 μl PBS containing 5% normal goat serum (NGS) were added to 100 μl of MAb (1-5 μg) and incubated 30 min on ice. In comparative experiments we prefixed the cells with 2% paraformaldehyde in PBS immediately after 2-OH-βCD treatment. Cells were washed with PBS, resuspended in 100 μl of PBS, 5% NGS containing 2 Tg of FITC conjugated-goat anti-mouse IgG (FITC-GAM) and incubated 1 h on ice. Cells were then washed with PBS and fixed with 2% paraformaldehyde followed by analysis on an EPICS Profile II flow cytometer.\n(§2) Cholesterol depletion also promoted CXCR4 down-modulation by MAb-induced internalization. A possible explanation for the inhibition of syncytium formation by cholesterol depletion as described above is that CD4, CRs, or both are lost from the cell surface, for example, by extrusion from the membrane in vesicles after loss of cholesterol, or they could be internalized. To explore these possibilities, βCD treated cells were examined for expression of HIV receptors by flow cytometry. […] In contrast, cell surface expression of CXCR4 was reduced by 50% or more in all of the cells after 2-OH-βCD treatment (Table 1).\nIn order to determine whether the loss of CXCR4 expression was due to MAb-induced internalization, cells were fixed with 2% paraformaldehyde in PBS immediately after 2-OH-βCD treatment and before staining with MAbs for flow cytometry."}, "[3]": {"test_system": "CCR5", "assay": "Flow cytometry of CCR5 expression on primary T cells", "assay_type": "cell-based", "conditions": "primary T cells after treatment (19% before)", "experimental": "as §1, §2"}, "[4]": {"test_system": "CXCR4, CD4 and CD45 on PHA blasts", "assay": "Immunostaining and confocal microscopy of PHA blasts", "assay_type": "cell-based", "experimental": "Cell-surface staining of 2-OH-βCD-treated and untreated cells was performed under saturating conditions. 2-OH-βCD-treated and untreated PHA blasts (3×10^5) were washed in cold PBS and pre-incubated on ice for 15 min in 5% NGS/PBS. Cells were then incubated with MAb 1-5 μg in 5% NGS/PBS 45 min on ice, washed with PBS and then incubated with 2 μg of FITC-GAM in 5% NGS/PBS. The cells were then fixed with 2% paraformaldehyde in PBS and spun onto poly-L-lysine coated slides using cyto-funnels. The pellets were overlaid with 50 μl of 25% glycerol in PBS and a coverslip was positioned over the droplet. The edges of the slides were sealed with nail polish before storing them at 4° C. This staining procedure was also performed with cells prefixed with 2% paraformaldehyde in PBS prior to MAb staining. Viewing of slides was performed with an Olympus IX50 confocal microscope under oil immersion at 100x magnification. Micrographs were acquired onto a Silicon Graphics Workstation with Intervision software. Final images were enhanced on the Silicon Graphics Workstation by two-dimensional deconvolution, and brightness and contrast were adjusted for viewing.\nPatchy staining of CXCR4 persisted after 2-OH-βCD treatment whether the cells were fixed before or after mAb staining. […]"}, "[5]": {"test_system": "HIV-1Ba-L-infected HuPBL", "assay": "Vaginal transmission of cell-associated HIV-1 in HuPBL-SCID mice", "assay_type": "in vivo", "conditions": "for Number of mice from which HIV-1 was cultured/Number of mice exposed to HIV-1: P < 0.01", "experimental": "The mice were treated subcutaneously with 2.5 mg progestin (Depo-Provera® progestin; Upjohn Pharmaceuticals; Kalamazoo Mich.), on the same day as administration of 5×10^7 unstimulated HuPBMC intraperitoneally in 1 ml PBS. Seven days following progestin treatment and reconstitution of the SCID mice with HuPBMC, the mice were anesthetized and administered pelleted, cell-free HIV-1Ba-L (up to […]), supernatant fluids from HIV-1Ba-L-infected HuPBL, HIV-1Ba-L-infected HuPBL, or HIV-1MN-infected HuPBL (1×10^6/mouse). In the βCD experiments, the mice received 2-OH-βCD (3% w/v in PBS) 5 min prior to receiving 1×10^6 HIV-1Ba-L-infected HuPBL, 1×10^6 HIV-1Ba-L-infected HuPBL pre-incubated with 3% 2-OH-βCD, or 1×10^6 HIV-1Ba-L-infected HuPBL suspended in PBS.\nMice remained anesthetized for 5 minutes following intravaginal inoculation by pipette. Extreme care was taken to avoid causing trauma to vaginal tissues. Two weeks later the mice were euthanized and peritoneal cells were recovered by lavage with cold PBS. The cells recovered by lavage (of both murine and human origin) were assayed by DNA-PCR for human β-globin to determine the presence of human cells from the peritoneum and for HIV-1 infection by co-culture with PHA-stimulated HuPBMC.\nThe ability of a βCD to inhibit vaginal transmission of cell-associated HIV-1 was examined. Reconstituted HuPBL-SCID mice were challenged intravaginally with 1×10^6 PBMC infected with HIVBa-L after receiving progesterone subcutaneously and HuPBMC intraperitoneally. For two of the experimental groups the HIV-1 infected PBMC were pre-incubated in either 20 Tl PBS or 2-OH-βCD (3% w/v) before the mixture was inoculated intravaginally."}}, "note": "Marks after values point to notes of the source that are not given here."}
{"substance": "2-hydroxypropyl-β-cyclodextrin [2-OH-βCD]", "values": [{"measurement": "Depletion of total cellular cholesterol", "setting": "[1]", "value": "greater than 70%"}, {"measurement": "CD4 (MCF)", "setting": "[2]; H9, 20 mM, fixed with 2% paraformaldehyde immediately after treatment", "value": 50, "unit": "MCF"}, {"measurement": "CD4 (MCF)", "setting": "[2]; H9 cells, 20 mM, not fixed before staining", "value": 20.9, "unit": "MCF"}, {"measurement": "CD4 (MCF)", "setting": "[2]; MT2 cells, 20 mM, not fixed before staining", "value": 62.2, "unit": "MCF"}, {"measurement": "CD4 expression after treatment", "setting": "[2]; PHA blasts or any of the cell lines tested", "value": "did not change"}, {"measurement": "CD4 (MCF)", "setting": "[2]; PM1, 20 mM, fixed with 2% paraformaldehyde immediately after treatment", "value": 129, "unit": "MCF"}, {"measurement": "CD4 (MCF)", "setting": "[2]; PM1 cells, 20 mM, not fixed before staining", "value": 85.9, "unit": "MCF"}, {"measurement": "CD4 (MCF)", "setting": "[2]; SupT1, 20 mM, fixed with 2% paraformaldehyde immediately after treatment", "value": 213, "unit": "MCF"}, {"measurement": "CD4 (MCF)", "setting": "[2]; SupT1 cells, 20 mM, not fixed before staining", "value": 188.3, "unit": "MCF"}, {"measurement": "CD4 expression on the cell surface", "setting": "[2]; cells fixed immediately after treatment, before MAb staining", "value": "remained unchanged"}, {"measurement": "CCR5 expression, cells staining positive", "setting": "[3]", "value": 8, "unit": "%"}, {"measurement": "Distribution of CXCR4 on the cell surface", "setting": "[4]; PHA blasts after cholesterol depletion", "value": "not significantly redistributed"}, {"measurement": "Distribution of CD4 and CD45 on the cell surface", "setting": "[4]; PHA blasts after treatment", "value": "unchanged"}, {"measurement": "Number of mice from which HIV-1 was cultured/Number of mice exposed to HIV-1", "setting": "[5]; 3% w/v intravaginally 5 min prior to infected HuPBMC challenge", "value": "1/11*"}, {"measurement": "Number of mice from which HIV-1 was cultured/Number of mice exposed to HIV-1", "setting": "[5]; 3% w/v premixed with HIV-infected HuPBMC, intravaginal", "value": "2/16*"}, {"measurement": "Cell-associated HIV-1 transmission by the vaginal route", "setting": "[5]; 3% w/v, even when administered prior to infected PBMC", "value": "significantly inhibited"}]}
